Data taken from patent US11518760B2 (Liverpool School of Tropical Medicine, priority 2017, dated 2022).

tested on: C6/36 Aedes albopictus cell line infected with Wolbachia pipientis (Wolbachia strain wAlbB); test: In vitro insect cell line assay (anti-Wolbachia screen, SYTO 11 high content imaging); assay type: cell-based; conditions: 168 h; C6/36 Aedes albopictus cells infected with Wolbachia pipientis wAlbB, 7 days incubation, SYTO 11 imaging; read-out: In vitro anti-Wolbachia activity
How it was run: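 Wolbachia wAlbB-infected C6/36 Aedes albopictus cells were exposed to compounds at a final 5 μM for 7 days at 26 °C, with DMSO-medium wells as untreated controls. Cells were then stained with SYTO 11 for 15 min, imaged by high-content microscopy and scored by texture analysis.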

Structure (SMILES) | EC50 [nM]
FC(F)C1CN(c2nc(NCc3ccccc3C(F)(F)F)c3cccnc3n2)C1 [Example 276, 2-(3-(difluoromethyl)azetidin-1-yl)-N-(2-(trifluoromethyl)benzyl)pyrido[2,3-d]pyrimidin-4-amine] | < 0.01
N#CC1CCCN(c2nc(NCc3cccnc3C(F)(F)F)c3cccnc3n2)C1 (centres unmarked) [Example 251] | 1 to 10
Cc1csc2c(NC(C)c3ccccc3C(F)(F)F)ncnc12 (centres unmarked) [Example 105, 7-methyl-N-(1-(2-(trifluoromethyl)phenyl)ethyl)thieno[3,2-d]pyrimidin-4-amine] | 1000 to 100000
CC(C)Nc1nc(N2CCCN2c2ccccc2C(F)(F)F)c2cccnc2n1 [Example 189, N-isopropyl-4-(2-(2-(trifluoromethyl)phenyl)pyrazolidin-1-yl)pyrido[2,3-d]pyrimidin-2-amine] | 1000 to 100000
CC(C)Nc1nc(N(C)Cc2ccccc2C(F)(F)F)c2sccc2n1 [Example 50, N^2-isopropyl-N^4-methyl-N^4-(2-(trifluoromethyl)benzyl)thieno[3,2-d]pyrimidine-2,4-diamine] | 10 to 100
CC1CN(c2nc(NCc3ccccc3C(F)(F)F)c3cccnc3n2)CCO1 (centres unmarked) [Example 248, 2-(2-methylmorpholino)-N-(2-(trifluoromethyl)benzyl)pyrido[2,3-d]pyrimidin-4-amine] | 0.01 to 1
CC(C)Nc1nc(NCc2ccc(F)cc2)c2sccc2n1 [Example 15, N^4-(4-fluorobenzyl)-N^2-isopropylthieno[3,2-d]pyrimidine-2,4-diamine] | 100 to 1000
O=C1CCCN1CCCNc1nc(NCc2ccccc2C(F)(F)F)c2sccc2n1 [Example 88, 1-(3-((4-((2-(trifluoromethyl)benzyl)amino)thieno[3,2-d]pyrimidin-2-yl)amino)propyl)pyrrolidin-2-one] | 1000 to 100000
O=C(Nc1ccc(F)cc1)Nc1nc(NCc2cccnc2C(F)(F)F)c2cccnc2n1 [Example 204, 1-(4-fluorophenyl)-3-(4-(((2-(trifluoromethyl)pyridin-3-yl)methyl)amino)pyrido[2,3-d]pyrimidin-2-yl)urea] | 10 to 100
CC(C)Nc1nc(NCc2ccc(F)cc2)c2ccccc2n1 [Example 134, N^4-(4-fluorobenzyl)-N^2-isopropylquinazoline-2,4-diamine] | 1000 to 100000
FC1(F)CCN(Cc2nc(NCc3cccnc3C(F)(F)F)c3cccnc3n2)CC1 [Example 228, 2-((4,4-difluoropiperidin-1-yl)methyl)-N-((2-(trifluoromethyl)pyridin-3-yl)methyl)pyrido[2,3-d]pyrimidin-4-amine] | 100 to 1000
FC1(F)CCN(c2nc(N3CCC3c3ccccc3C(F)(F)F)c3cccnc3n2)C1 (centres unmarked) [Example 215, 2-(3,3-difluoropyrrolidin-1-yl)-4-(2-(2-(trifluoromethyl)phenyl)azetidin-1-yl)pyrido(2,3-d]pyrimidine] | 10 to 100
CC1(C)CCN(c2nc(NCc3cccnc3C(F)(F)F)c3cccnc3n2)CC1 [Example 233, 2-(4,4-dimethyipiperidin-1-yl)-N-((2-(trifluoromethyl)pyridin-3-yl)methyl)pyrido[2,3-d]pyrimidin-4-amine] | 10 to 100
CS(=O)(=O)C1CCN(c2nc(NCc3cccnc3C(F)(F)F)c3cccnc3n2)CC1 [Example 232, 2-(4-(methylsulfonyl)piperidin-1-yl)-N-((2-(trifluoromethyl)pyridin-3-yl)methyl)pyrido[2,3-d]pyrimidin-4-amine] | 100 to 1000
N#CC1CCN(c2nc(NCc3cccnc3C(F)(F)F)c3cccnc3n2)CC1 [Example 234, 1-(4-(((2-(trifluoromethyl)pyridin-3-yl)methyl)amino)pyrido[2,3-d]pyrimidin-2-yl)piperidine-4-carbonitrile] | 1 to 10
CC(Nc1ncnc2c(C#N)csc12)c1ccccc1C(F)(F)F (centres unmarked) [Example 108, 4-((1-(2-(trifluoromethyl)phenyl)ethyl)amino)thieno[3,2-d]pyrimidine-7-carbonitrile] | 1000 to 100000
C[C@@H]1COCCN1c1nc(N2CCC2c2ccccc2C(F)(F)F)c2cccnc2n1 (stereo partly drawn) [Example 290, (3R)-3-methyl-4-(4-(2-(2-(trifluoromethyl)phenyl)azetidin-1-yl)pyrido[2,3-d]pyrimidin-2-yl)morpholine] | 0.01 to 1
CC1(C)COCCN1c1nc(NCc2cccnc2C(F)(F)F)c2cccnc2n1 [Example 240, 2-(3,3-dimethylmorpholino)-N-((2-(trifluoromethyl)pyridin-3-yl)methyl)pyrido[2,3-d]pyrimidin-4-amine] | 0.01 to 1
FC1(F)CCN(c2nc(NCc3cccnc3C(F)(F)F)c3cccnc3n2)C1 [Example 194, 2-(3,3-difluoropyrrolidin-1-yl)-N-((2-(trifluoromethyl)pyridin-3-yl)methyl)pyrido[2,3-d]pyrimidin-4-amine] | 1 to 10
CC(C)Nc1nc(NC(C)c2ccccc2C(F)(F)F)c2sccc2n1 (centres unmarked) [Example 53, N^2-isopropyl-N^4-(1-(2-(trifluoromethyl)phenyl)ethyl)thieno[3,2-d]pyrimidine-2,4-diamine] | 1 to 10
O=C(Nc1ncnc2ccsc12)c1ccccc1C(F)(F)F [Example 37, N-(thieno[3,2-d]pyrimidin-4-yl)-2-(trifluoromethyl)benzamide] | 1000 to 100000

Structure (SMILES) | EC50 [nM]
CC(C)Nc1nc(Nc2ccccc2C(F)(F)F)c2sccc2n1 [Example 59, N^2-isopropyl-N^4-(2-(trifluoromethyl)phenyl)thieno[3,2-d]pyrimidin-2,4-amine] | 100 to 1000
CC(C)S(=O)(=O)c1nc(NCc2cccnc2C(F)(F)F)c2cccnc2n1 [Example 179, 2-(isopropylsulfonyl)-N-((2-(trifluoromethyl)pyridin-3-yl)methyl)pyrido[2,3-d]pyrimidin-4-amine] | 10 to 100
COc1cccc(CNc2nc(NC(C)C)nc3ccsc23)c1 [Example 16, N^2-isopropyl-N^4-(3-methoxybenzyl)thieno[3,2-d]pyrimidine-2,4-diamine] | 1000 to 100000
CNc1nc(NCc2ccccc2C(F)(F)F)c2cccnc2n1 [Example 143, N^2-methyl-N^4-(2-(trifluoromethyl)benzyl)pyrido[2,3-d]pyrimidine-2,4-diamine] | 10 to 100
FC(F)(F)c1ccccc1CNc1nc(N2CC3CC(C2)O3)nc2ncccc12 [Example 300, 2-(6-oxa-3-azabicyelo[3.1.1]heptan-3-yl)-N-(2-(trifluoromethyl)benzyl)pyrido[2,3-d]pyrimidin-4-amine] | < 0.01
NC(=O)c1nc(NCc2ccccc2C(F)(F)F)c2sccc2n1 [Example 155, 4-((2-(trifluoromethyl)benzyl)amino)thieno[3,2-d]pyrimidine-2-carboxamide] | 1000 to 100000
CC(C)Nc1nc(NCc2ccccc2C(F)(F)F)c2ccccc2n1 [Example 58, N^2-isopropyl-N^4-(2-(trifluoromethyl)benzyl)quinazoline-2,4-diamine] | 100 to 1000
FC1(F)CC2(CCN(c3nc(NCc4cccnc4C(F)(F)F)c4cccnc4n3)CC2)C1 [Example 252, 2-(2,2-difluoro-7-azaspiro[3.5]nonan-7-yl)-N-((2-(trifluoromethyl)pyridin-3-yl)methyl)pyrido[2,3-d]pyrimidin-4-amine] | 0.01 to 1
CC(C)(C)Nc1nc(NCc2ccccc2C(F)(F)F)c2sccc2n1 [Example 41, N^2-(tert-butyl)-N^4-(2-(trifluoromethyl)benzyl)thieno[3,2-d]pyrimidine-2,4-diamine] | 10 to 100
N#CC1CN(c2nc(NCc3ccccc3C(F)(F)F)c3cccnc3n2)CCO1 (centres unmarked) [Example 283, 4-(4-((2-(trifluoromethyl)benzyl)amino)pyrido[2,3-d]pyrimidin-2-yl)morpholine-2-carbonitrile] | 0.01 to 1
CC(C)N(C)c1nc(N(C)Cc2cccnc2C(F)(F)F)c2cccnc2n1 [Example 161, N^2-isopropyl-N^2,N^4-dimethyl-N^4-((2-(trifluoromethyl)pyridin-3-yl)methyl)pyrido[2,3-d]pyrimidine-2,4-diamine] | 1 to 10
CS(=O)(=O)c1ccccc1CNc1nc(Cl)nc2ccccc12 [Example 113] | 1000 to 100000
CC(C)Nc1nc(NCc2ccc(C(F)(F)F)cc2)c2sccc2n1 [Example 109, N^2-isopropyl-N^4-(4-(trifluoromethyl)benzyl)thieno[3,2-d]pyrimidine-2,4-diamine] | 1000 to 100000
FC(F)(F)c1ncccc1CNc1nc(N2CC(C(F)(F)F)C2)nc2ncccc12 [Example 202, 2-(3-(trifluoromethyl)azetidin-1-yl)-N-((2-(trifluoromethyl)pyridin-3-yl)methyl)pyrido[2,3-d]pyrimidin-4-amine] | 1 to 10
FC(F)(F)c1ccccc1CNc1nc(N2CCOCC2)nc2ccsc12 [Example 94, 2-morpholino-N-(2-(trifluoromethyl)benzyl)thieno[3,2-d]pyrimidin-4-amine] | 1000 to 100000
Cc1nc(N(C)C(C)c2ccccc2C(F)(F)F)c2sc(C)cc2n1 (centres unmarked) [Example 69, N,2,6-trimethyl-N-(1-(2-(trifluoromethyl)phenyl)ethyl)thieno[3,2-d]pyrimidin-4-amine] | 1000 to 100000
CC(C)Nc1nc(NCc2ccc(C(F)(F)F)nc2)c2ccccc2n1 [Example 114, N^2-isopropyl-N^4-((6-(trifluoromethyl)pyridin-3-yl)methyl)quinazoline-2,4-diamine] | 100 to 1000
CC1(O)CN(c2nc(NCc3cccnc3C(F)(F)F)c3cccnc3n2)C1 [Example 171, 3-methyl-1-(4-(((2-(trifluoromethyl)pyridin-3-yl)methyl)amino)pyrido[2,3-d]pyrimidin-2-yl)azetidin-3-ol] | 100 to 1000
Cc1nc(N(C)C(C)c2ccccc2C(F)(F)F)c2sc(C3(O)COC3)cc2n1 (centres unmarked) [Example 76] | 1000 to 100000
FC(F)(F)c1ncccc1C1CCN1c1nc(N2CCC(Cl)CC2)nc2ncccc12 (centres unmarked) [Example 217, 2-(4-chloropiperidin-1-yl)-4-(2-(2-(trifluoromethyl)pyridin-3-yl)azetidin-1-yl)pyrido[2,3-d]pyrimidine] | < 0.01
